# Legend:
# [1] = biological target: T1, FAK [pY397] in MDA-MB-231 cells (Homo sapiens, UniProt Q05397); assay: FAK [pY397] ELISA in MDA-MB-231 cells; assay type: cell-based; settings: MDA-MB-231, 1 h treatment, mean ± SEM (n = 3); read-out: IC50 FAK phosphorylation (pY397 ELISA)
# T1 construct: endogenous in cells; host or cells: MDA-MB-231
# Method: TNBC cells were seeded into 60 mm dishes at a density of 1 × 10^6 cells/dish in 5 mL of culture media. After 24 h, cells were treated with concentrations ranging from 1 nM to 10 μM of SJP1602 for 1 h, and cell lysates were prepared to detect phospho-FAK levels. The FAK [pY397] enzyme-linked immunosorbent assay was performed according to the manufacturer’s instructions. The absorbance at 450 nm was measured to quantify the results.
# [2] = Pharmacokinetics in SD rats; assay type: in vivo, rat
# Method: The pharmacokinetics (PK) study was conducted in male SD rats. Three rats received a single-dose intravenous injection of SJP1602 at 5 mg/kg, and another set of three rats received a single-dose oral administration of SJP1602 at 20 mg/kg. The vehicle composition used was DMA 3% and Cremophor ELP 4%. Blood drug concentrations over time were determined by drawing blood after 0.17, 0.5, 1, 2, 4, 6, and 24 h. Plasma was isolated using K3EDTA anticoagulation tubes, and the drug concentration in the plasma was analyzed by LC/MS/MS (Waters, MA, USA). To analyze the concentration of pretreated rat plasma samples, a Waters Acquity ultra-performance liquid chromatography system (UPLC, Waters) was employed, in tandem with a C18 column (Acquity UPLC® BEH C18 1.7 μm, 2.1 × 50 mm). The mass spectrometry analysis was conducted using the Waters Xevo-TQ-S micro. For the mobile phases, phase A consisted of distilled water with 0.1% formic acid, while phase B comprised methanol, also with 0.1% formic acid. PK parameters were subsequently derived using WinNonlin software (version 2.1), which enabled the determination of AUC (ng×h/mL), Cmax (ng/mL), and bioavailability (BA). The area under the drug concentration curve (AUC) was calculated utilizing the trapezoidal rule, focusing on the time interval AUC0–24h.
# [3] = male, SD, rat, plasma, po, 20 mg/kg, po 20 mg/kg, male SD rats
# [4] = rat, plasma, iv 5 mg/kg, male SD rats
# [5] = rat, plasma, po 20 mg/kg, male SD rats
# T1 sequence (Q05397 whole entry): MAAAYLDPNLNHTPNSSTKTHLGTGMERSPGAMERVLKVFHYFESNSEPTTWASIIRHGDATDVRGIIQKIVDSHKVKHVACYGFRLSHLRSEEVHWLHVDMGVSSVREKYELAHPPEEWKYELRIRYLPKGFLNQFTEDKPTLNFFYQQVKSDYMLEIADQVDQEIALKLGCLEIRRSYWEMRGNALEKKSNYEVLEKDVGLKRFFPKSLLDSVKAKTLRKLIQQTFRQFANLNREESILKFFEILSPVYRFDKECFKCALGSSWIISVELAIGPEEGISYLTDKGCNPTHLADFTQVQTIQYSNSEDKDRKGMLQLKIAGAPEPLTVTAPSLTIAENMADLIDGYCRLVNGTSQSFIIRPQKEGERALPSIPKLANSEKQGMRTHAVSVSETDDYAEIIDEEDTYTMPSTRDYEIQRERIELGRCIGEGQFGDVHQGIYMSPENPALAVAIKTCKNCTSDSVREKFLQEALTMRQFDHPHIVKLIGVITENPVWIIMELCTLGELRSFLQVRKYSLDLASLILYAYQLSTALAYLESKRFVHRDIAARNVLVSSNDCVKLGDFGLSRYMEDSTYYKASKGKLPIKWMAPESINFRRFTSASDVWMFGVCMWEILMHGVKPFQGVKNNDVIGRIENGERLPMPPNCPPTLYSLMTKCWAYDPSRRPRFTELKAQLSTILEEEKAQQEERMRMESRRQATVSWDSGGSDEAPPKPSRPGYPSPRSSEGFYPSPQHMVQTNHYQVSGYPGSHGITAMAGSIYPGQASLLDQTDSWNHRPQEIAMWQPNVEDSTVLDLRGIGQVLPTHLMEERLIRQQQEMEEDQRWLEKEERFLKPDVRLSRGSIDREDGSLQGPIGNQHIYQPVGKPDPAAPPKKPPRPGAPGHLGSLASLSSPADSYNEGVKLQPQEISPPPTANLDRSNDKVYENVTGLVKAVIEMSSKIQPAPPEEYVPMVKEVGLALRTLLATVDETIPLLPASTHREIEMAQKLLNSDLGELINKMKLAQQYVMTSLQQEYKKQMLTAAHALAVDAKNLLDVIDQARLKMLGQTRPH
smiles,measurement,setting,value
"CNC(=O)c1cccc(C)c1Nc1nc(Nc2ccc(N3CCN(C4C5CC6CC4CC(O)(C6)C5)CC3)cc2OC)ncc1C(F)(F)F (stereo not shown) [SJP1602, 2-((2-((4-(4-((2s,5r)-5-hydroxyadamantan-2-yl)piperazin-1-yl)-2-methoxyphenyl)amino)-5-(trifluoromethyl)pyrimidin-4-yl)amino)-N,3-dimethylbenzamide]",IC50,[1],20 ± 7 nM
same,half-life,"[2]; male, SD, rat, plasma, iv, 5 mg/kg, iv 5 mg/kg, male SD rats",0.93 ± 0.25 h
same,bioavailability,[2]; [3],45%
same,half-life,[2]; [3],2.2 h
same,AUC,"[2]; male, SD, rat, plasma, single oral dose 20 mg/kg, rats, read-out: area under the curve (AUC)",22 µM·h
same,T1/2,"[2]; po 20 mg/kg, male SD rats, 20 mg/kg",2.24 ± 0.19 h
same,AUC(0-t),[2]; [4],7070 ng·h/mL
same,Cmax,[2]; [4],3890 ng/mL
same,Tmax,[2]; [4],0.28 h
same,AUC(0-t),[2]; [5],14700 ng·h/mL
same,Cmax,[2]; [5],3270 ng/mL
same,Tmax,[2]; [5],1 h
same,peak concentration,"[2]; single oral dose 20 mg/kg, rats",4.9 µmol/L

# Reference: PMC10528299, “Targeting FAK/PYK2 with SJP1602 for Anti-Tumor Activity in Triple-Negative Breast Cancer” (Current Issues in Molecular Biology, 2023)
